21 compounds from patent publication US12084434B2 (Scorpion Therapeutics, Inc., priority 2021, dated 2024) can be followed below.

By Kd is commonly meant the free concentration of one partner at which half of the binding sites on the other are occupied at equilibrium, for simple one-to-one binding. As usually defined, the IC50 is the concentration at which inhibition is half-maximal.

The target of one assay is T1, PI3Kα H1047R protein (p110-α H1047R complexed with truncated p85-α) (Homo sapiens, UniProt P42336, H1047R).
T1 construct: The protein contained a full-length p110-α subunit harboring the H1047R mutation
T1 sequence (P42336 whole entry H1047R, the tested form may be a part): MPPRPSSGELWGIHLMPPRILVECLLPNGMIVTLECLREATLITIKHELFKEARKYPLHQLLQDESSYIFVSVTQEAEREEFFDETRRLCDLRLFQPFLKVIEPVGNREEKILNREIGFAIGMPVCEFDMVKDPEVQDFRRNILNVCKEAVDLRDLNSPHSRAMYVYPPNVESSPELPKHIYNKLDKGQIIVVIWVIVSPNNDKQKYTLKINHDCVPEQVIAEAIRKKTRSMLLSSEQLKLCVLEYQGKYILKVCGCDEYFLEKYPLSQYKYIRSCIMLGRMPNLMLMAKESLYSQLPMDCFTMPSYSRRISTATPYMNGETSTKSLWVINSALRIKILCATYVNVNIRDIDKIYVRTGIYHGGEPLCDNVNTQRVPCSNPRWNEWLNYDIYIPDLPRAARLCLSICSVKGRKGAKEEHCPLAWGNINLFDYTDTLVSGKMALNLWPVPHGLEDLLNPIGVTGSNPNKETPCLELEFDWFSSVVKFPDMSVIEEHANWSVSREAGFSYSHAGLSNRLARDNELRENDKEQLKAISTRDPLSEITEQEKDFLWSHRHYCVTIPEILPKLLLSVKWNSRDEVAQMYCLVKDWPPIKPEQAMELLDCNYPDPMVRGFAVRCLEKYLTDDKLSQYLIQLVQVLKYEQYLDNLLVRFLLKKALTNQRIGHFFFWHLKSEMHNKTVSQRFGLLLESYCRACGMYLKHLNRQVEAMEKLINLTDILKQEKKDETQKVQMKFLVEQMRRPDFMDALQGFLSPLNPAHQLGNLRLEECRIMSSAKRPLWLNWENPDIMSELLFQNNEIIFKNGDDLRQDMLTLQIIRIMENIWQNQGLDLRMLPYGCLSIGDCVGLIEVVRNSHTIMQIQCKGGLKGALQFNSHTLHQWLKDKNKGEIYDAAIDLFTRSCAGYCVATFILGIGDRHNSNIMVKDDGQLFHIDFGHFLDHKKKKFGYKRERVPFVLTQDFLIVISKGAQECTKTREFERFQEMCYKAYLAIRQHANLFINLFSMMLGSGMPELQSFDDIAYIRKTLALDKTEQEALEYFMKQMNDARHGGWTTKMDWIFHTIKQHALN
T1 sequence (P27986 322-694 partner limits assumed): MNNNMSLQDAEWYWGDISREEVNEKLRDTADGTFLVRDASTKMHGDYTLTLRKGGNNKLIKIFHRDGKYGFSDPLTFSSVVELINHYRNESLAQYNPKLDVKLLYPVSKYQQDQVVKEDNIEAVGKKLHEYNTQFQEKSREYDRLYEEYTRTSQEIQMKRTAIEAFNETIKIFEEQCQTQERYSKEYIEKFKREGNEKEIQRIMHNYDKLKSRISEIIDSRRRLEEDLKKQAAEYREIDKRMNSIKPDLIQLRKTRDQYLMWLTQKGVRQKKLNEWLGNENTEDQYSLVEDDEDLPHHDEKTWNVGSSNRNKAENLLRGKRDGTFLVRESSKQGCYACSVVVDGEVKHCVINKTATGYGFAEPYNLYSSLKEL
The assay is described as follows: Surface Plasmon Resonance (SPR) binding, wortmannin-blocked protein. The following applies: Biacore 8K, ATP site blocked with 1 μM wortmannin, 25° C. The protocol:
Surface Plasmon Resonance (SPR)
SPR experiments were performed on a Biacore 8K instrument. A biotinylated recombinant PI3Kα H1047R protein was used in this study. The protein contained a full-length p110-α subunit harboring the H1047R mutation with an N-terminal AviTag, complexed with a truncated p85-α subunit (amino acid residues 322-694). The protein was first incubated with 1 μM wortmannin for 30 min at RT to covalently block the ATP binding site, then immobilized onto a streptavidin sensor chip by flowing the protein through the sensor chip at typically 20 μg/mL concentration and 2 μL/min flow rate for 1200 seconds. Compound binding affinities were measured in the multi-cycle kinetics mode, at 90 μL/min flow rate with 90 seconds association time and 240 seconds dissociation time. The running buffer contained 50 mM Tris, pH 7.5, 150 mM NaCl, 0.01% Brij35, 1 mM DTT, 1 mM MgCl2, 0.05% Tween-20 and 2% DMSO. Temperature was maintained at 25° C. during experiments.
On the technique in general: Surface plasmon resonance follows binding to a sensor surface in real time, without labels.
For `Cc1c([C@@H](NC(=O)N[C@H]2CC[C@H](C(N)=O)CC2)C(C)C)oc2ccc(F)cc12` (relative stereo) [Compound 42, (1R,4r)-4-(3-((R*)-1-(5-fluoro-3-methylbenzofuran-2-yl)-2-methylpropyl)ureido)cyclohexane-1-carboxamide], the Kd is no less than 500 nM.

For the compound `Cc1c(C(NC(=O)Nc2ccc(S(C)(=O)=O)cc2)C(C)C)oc2ccc(F)cc12` (single isomer, unassigned) [Compound 11], the Kd is 100 to 250 nM.

Regarding `CNS(=O)(=O)c1ccc(NC(=O)NC(C)c2oc3ccc(F)cc3c2C)cc1` (single isomer, unassigned) [Compound 14], the Kd was no less than 500 nM.

`Cc1c([C@@H](NC(=O)N[C@@H]2CCCN(S(C)(=O)=O)C2)C(C)C)oc2ccc(F)cc12` (single isomer, unassigned) [Compound 19]: the Kd was no less than 500 nM.

Consider `Cc1c([C@@H](NC(=O)Nc2ccc(C(N)=O)cc2)C(C)C)oc2ccc(F)cc12` (single isomer, unassigned) [Compound 21], for which the Kd was 100 to 250 nM.

For the next assay, the system named is T47D pAKT (S473), PI3Kα H1047R mutation present. The assay is described as follows: HTRF pAKT-T47D.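 Further: assay medium was RPMI with 10% FBS and 0.2 units/ml bovine insulin, without phenol red.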 The following applies: Homo sapiens, T47D, 1 h, read-out: T47D pAKT IC50 (nM), T47D.1 cells, pAKT (S473) HTRF, 1 hour. A general note: In TR-FRET formats the signal depends on donor and acceptor labels being close together.
Description: Homogenous Time-Resolved Fluorescence (HTRF)—pAKT-T47D
Compounds were assayed using homogeneous time-resolved fluorescence (HTRF).
Gibco RPMI 1640 Medium, no phenol red; Gibco RPMI 1640 Medium; Gibco Trypsin-EDTA (0.5%), no phenol red; Gibco DPBS; Trypan blue solution 0.4% (Corning); Avantor Seradigm Premium Grade Fetal Bovine Serum (FBS); Greiner 784080-384 well TC treated white plates; pAKT (Ser473) HTRF; Gibco Insulin, human recombinant, zinc solution; Gibco Recovery Cell Culture Freezing Medium; Countess II FL Automated Cell Counter (ThermoFisher); Countess II Slides (ThermoFisher); Microscope; and PHERAstar FSX Microplate Reader (BMG LABTECH, Inc.).
The scinamic cell line ID was T47D.1, the HTRF detection was pAKT (S473), a PI3Kα H1047R mutation was present, the seeding density was 5000, the timepoint was 1 hour, and the medium used was RPMI+10% FBS (no phenol red)+0.2 units/ml bovine insulin.
• The cell density was not permitted to reach 100% confluence. The cells were split 1:5 when they reached ˜80% confluence. • Cells were split twice a week (Mon and Fri). • Cells over passage 18 were not used (˜2 months of maintenance). • Antibiotics were not used for tissue culture maintenance or assays. […] Protocol Day1
The procedure was as follows: • 1. Prepared ARP: • a. Stamped 12.5 nL from 10 μmM source plate to destination plate using Echo. Sealed plate immediately and froze at −20° C. if it was not used on the same day. • b. If a frozen ARP was used, the plate was thawed and spun at 1000 rpm×1 min. • 2. Preparation of cells (adherent): • a. Aspirated media from cells. Washed cells with sterile 1XPBS. Aspirated PBS and added appropriate amount of Trypsin. • b. Once cells were fully trypsinized, added appropriate media to resuspend cells. Transferred cells to a 15 mL or 50 mL conical tube. • c. Counted cells on the Countess II Cell Counter. • 3. Plating of cells: • a. Prepared cells at appropriate plating density. Dispensed 12 μL of diluted cells per well of a Greiner 784080-384 well TC treated white plate using a Multidrop Combi to columns 1-23. Added 12 uL of appropriate phenol free media only to column 24. • b. Placed plates in 37° C. tissue culture incubator for appropriate treatment time (refer to “Assay” table). • 4. Prepared HTRF Lysis Buffer • a. Calculate the amount of HTRF lysis buffer master mix needed to perform the desired experiments plus any extra dead volume required for dispensing (4 μL required per well). […] Add 4 uL Lysis buffer master mix to all wells with sample or DMSO. Centrifuge the plates for 1 minute at 1000 rpm. • c. Incubate at room temperature for 30 minutes. • 5. Prepared HTRF Antibody • a.
Turning to `Cc1c([C@H](NC(=O)Nc2ccc3[nH]ncc3c2)C(F)(F)F)oc2c(F)cc(F)cc12` [Compound 193, 3-[(1S)-1-(5,7-difluoro-3-methyl-1-benzofuran-2-yl)-2,2,2-trifluoroethyl]-1-(1H-indazol-5-yl)urea], the IC50 is greater than 5000 nM.

In the case of `Cc1c([C@@H](NC(=O)Nc2ccc3[nH]ncc3c2)C(F)(F)F)oc2c(F)cc(F)cc12` [Compound 194, 3-[(1R)-1-(5,7-difluoro-3-methyl-1-benzofuran-2-yl)-2,2,2-trifluoroethyl]-1-(1H-indazol-5-yl)urea], the IC50 is less than 1000 nM.

With `Cc1c([C@@H](NC(=O)Nc2cnc(N3CC(C(C)(C)O)C3)nc2)C(F)(F)F)oc2c(F)cc(F)cc12` [Compound 205], the IC50 is less than 1000 nM.

In the case of `Cc1c([C@H](NC(=O)Nc2cnc(N3CC(C(C)(C)O)C3)nc2)C(F)(F)F)oc2c(F)cc(F)cc12` [Compound 206], the IC50 is greater than 5000 nM.

In the case of `Cc1c([C@H](NC(=O)Nc2cnc(N3CC[C@@H](O)C3)nc2)C(F)(F)F)oc2c(F)cc(F)cc12` [Compound 207], the IC50 is greater than 5000 nM.

With `Cc1c([C@@H](NC(=O)Nc2cnc(N3CC[C@@H](O)C3)nc2)C(F)(F)F)oc2c(F)cc(F)cc12` [Compound 208], the IC50 was less than 1000 nM.

For `Cc1c([C@@H](NC(=O)Nc2cnc(N3CC[C@H](O)C3)nc2)C(F)(F)F)oc2c(F)cc(F)cc12` [Compound 209], the IC50 was less than 1000 nM.

As for `Cc1c([C@H](NC(=O)Nc2cnc(N3CC[C@H](O)C3)nc2)C(F)(F)F)oc2c(F)cc(F)cc12` [Compound 210], the IC50 was greater than 5000 nM.

`Cc1c([C@@H](NC(=O)Nc2cnc(N3CC(C(N)=O)C3)nc2)C(F)(F)F)oc2c(F)cc(F)cc12` [Compound 211]: the IC50 was less than 1000 nM.

`Cc1c([C@H](NC(=O)Nc2cnc(N3CC(C(N)=O)C3)nc2)C(F)(F)F)oc2c(F)cc(F)cc12` [Compound 212]: the IC50 was greater than 5000 nM.

Still in this assay, the particulars now being: read-out: T47D pAKT IC50; T47D.1 cells, pAKT (S473) HTRF, 1 hour.
For the compound `Cc1c(C(NC(=O)Nc2cnc(N3C[C@@H](O)[C@@H]3C)nc2)C(F)(F)F)oc2c(F)cc(F)cc12` (stereo partly drawn) [Compound 175], the IC50 was less than 1000 nM.

On to `Cc1c(C(NC(=O)Nc2cnc(N3C[C@@H](O)[C@@H]3C)nc2)C(F)(F)F)oc2c(F)cc(F)cc12` (stereo partly drawn) [Compound 176], for which the IC50 was greater than 5000 nM.

As to `Cc1c(C(NC(=O)Nc2ccc(N)nc2)C(F)(F)F)oc2c(F)cc(F)cc12` (stereo not drawn) [Compound 181], the IC50 was greater than 5000 nM.

For the compound `Cc1c(C(NC(=O)Nc2ccc(N)nc2)C(F)(F)F)oc2c(F)cc(F)cc12` (stereo not drawn) [Compound 182], the IC50 is less than 1000 nM.

With `Cc1c([C@@H](NC(=O)Nc2cnc(NCC(C)(C)O)nc2)C(F)(F)F)oc2c(F)cc(F)cc12` [Compound 183], the IC50 is less than 1000 nM.

Consider `Cc1c([C@H](NC(=O)Nc2cnc(NCC(C)(C)O)nc2)C(F)(F)F)oc2c(F)cc(F)cc12` [Compound 184], for which the IC50 was greater than 5000 nM.
